Our source for the EC50 values is patent US9428456B2, “1-[m-carboxamido(hetero)aryl-methyl]-heterocyclyl-carboxamide derivatives” (Actelion Pharmaceuticals Ltd., priority 2012, dated 2016).

Sequence of CXCR7 (P25106 whole entry): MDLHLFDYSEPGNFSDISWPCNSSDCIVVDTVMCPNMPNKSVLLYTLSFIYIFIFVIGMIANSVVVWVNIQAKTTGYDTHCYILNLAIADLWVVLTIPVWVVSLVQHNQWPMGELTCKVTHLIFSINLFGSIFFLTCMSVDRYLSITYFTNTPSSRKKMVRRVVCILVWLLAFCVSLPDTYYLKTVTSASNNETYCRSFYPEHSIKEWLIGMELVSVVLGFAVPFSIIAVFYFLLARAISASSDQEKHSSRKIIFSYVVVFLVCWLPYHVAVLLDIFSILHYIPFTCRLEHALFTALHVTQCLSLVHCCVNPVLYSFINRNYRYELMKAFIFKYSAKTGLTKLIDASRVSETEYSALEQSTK
Sequence of CXCR7 (P32121 whole entry partner): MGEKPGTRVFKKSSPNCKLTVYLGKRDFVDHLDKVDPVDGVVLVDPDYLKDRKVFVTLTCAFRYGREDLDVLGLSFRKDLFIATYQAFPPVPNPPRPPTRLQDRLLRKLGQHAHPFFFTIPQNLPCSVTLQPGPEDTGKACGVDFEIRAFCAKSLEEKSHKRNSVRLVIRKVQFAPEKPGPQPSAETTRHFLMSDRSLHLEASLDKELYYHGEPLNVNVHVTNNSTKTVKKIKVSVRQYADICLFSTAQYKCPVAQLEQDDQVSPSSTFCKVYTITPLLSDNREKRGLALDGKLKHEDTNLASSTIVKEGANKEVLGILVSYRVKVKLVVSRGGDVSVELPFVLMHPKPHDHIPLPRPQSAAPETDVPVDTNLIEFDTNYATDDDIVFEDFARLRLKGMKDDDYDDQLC

For the experiment, the target named is CXCR7 (Homo sapiens (Human), UniProt P25106). In words: PathHunter CHO-K1 CXCR7 b-arrestin assay (agonistic activity). Format: cell-based. The settings on record: PathHunter CHO-K1 CXCR7 b-arrestin cell line. As to the method:
The CXCl12 receptor and CXCR7 agonistic activities of the compounds of formula (I) are determined in accordance with the following experimental method.
The assay is using the PathHunter™ CHO-K1 CXCR7 b-arrestin cell line from DiscoverX. The system is based on the Enzyme Fragment Complementation Technology. Two complementing fragments of the b-galactosidase enzyme are expressed within stably transfected cells. The larger portion of b-gal, termed EA for Enzyme Acceptor, is fused to the C-terminus of b-arrestin 2. The smaller fragment, termed ProLink™ tag, is fused to CXCR7 at the C-terminus. Upon activation, b-arrestin is recruited which forces the interaction of ProLink and EA, allowing complementation of the two fragments of b-gal and the formation of a functional enzyme which is capable of hydrolysing the substrate and generating a chemiluminescent signal.
CHO-K1 CXCR7 b-arrestin cells are detached from culture dishes with a cell dissociation buffer (Invitrogen, #13151-014) and collected in growing medium (F12 HAMS 90% (v/v)/FCS 10% (v/v), Penicilin/streptomycin 1% (v/v)). 5000 cells per well (in 20 μl) are seeded in a 384 well plate (white-walled, clear bottom; BD Falcon #353274). The plate is incubated at 37° C./5% CO2 for 24 hours. Medium is then replaced by 20 μl OPTIMEM (Invitrogen #31985) for 3 to 4 hours. Test compounds are dissolved at 10 mM in DMSO and serially diluted in DMSO to 200× of the final concentration for dose response curves. Compounds are then diluted 1:33.3 in HBSS1×. 5 μl/well of HBSS1×/20 mM HEPES/0.2% BSA are added to the assay plate followed by addition of 5 μl/well of diluted compounds. CXCL12 (Peprotech #300-28A) may be used as a reference agonist. The plate is incubated for 90 minutes at 37° C. 12 μl of detection reagent (Path Hunter Detection Kit, DiscoveRx, #93-0001) is transferred to the assay plate and to the plate is incubated for 1 hour at room temperature. Luminescent signal is read in a microplate reader (FLUOstar Optima, bmg). The calculated EC50 values may fluctuate depending on the daily cellular assay performance. Fluctuations of this kind are known to those skilled in the art. Average EC50 values from several measurements are given as geometric mean values.
In general, EC50 refers to the concentration at which the effect is half-maximal. A lower EC50 goes with higher potency in that assay. As to `Cc1cncc(C(=O)Nc2ccc(Cl)c(CN3CCC(C(=O)NC4CCCC4)CC3)c2)c1` [Example 1.226], a half-maximal effect (EC50) was put at 2 nM.

`CC(c1cccc(NC(=O)c2ccc(C(F)(F)F)cc2)c1)N1CCC(C(=O)NC2CCCCC2)CC1` (racemic) [Example 1.177] returned a concentration for a half-maximal effect (EC50) of 37 nM.

Take `O=C(Nc1cccc(CN2CCC(C(=O)NC3CCCCC3)CC2)c1)c1ccccc1` [Example 1.014]: the midpoint of the response, the EC50, lay at 3 nM.

Regarding `O=C(Nc1cccc(CN2CCC(C(=O)NC3CCCCC3)CC2)c1)c1cccc2ccccc12` [Example 1.048], the EC50 is 46 nM.

`CC(C)CN(C)C(=O)C1CCN(Cc2cccc(NC(=O)c3cncc(C(F)(F)F)c3)c2)CC1` [Example 1.276]: a half-maximal effect (EC50) was put at 6 nM.

As for `Cc1cc(C(=O)Nc2cccc(CN3CCC(C(=O)NC4CCCCC4)CC3)c2)no1` [Example 1.005], the concentration for a half-maximal effect (EC50) stood at 18 nM.

`COc1cc(OC)cc(C(=O)Nc2cccc(CN3CCC(C(=O)NC4CCCCC4)CC3)c2)c1` [Example 1.125] returned a concentration giving a half-maximal response (EC50) of 10 nM.

The compound `Cc1ccc(NC(=O)c2ccc(F)cc2)cc1CN1CCC(C(=O)NC(C)(C)C)CC1` [Example 1.300] gave an EC50 of 1 nM.

In turn, `COc1ccc(C(=O)Nc2cccc(CN3CCC(C(=O)NC4CCCCC4)CC3)c2)cc1OC` [Example 1.126] gave an EC50 of 70 nM.

With `CN(C)c1ccc(C(=O)Nc2cccc(CN3CCC(C(=O)NC4CCCCC4)CC3)c2)cc1` [Example 1.096], the EC50 turned out to be 40 nM.

`COc1ccc(C(=O)Nc2cccc(CN3CCC(C(=O)NC4CCCCC4)CC3)c2)cc1C` [Example 1.122] showed a 50% effective concentration (EC50) of 15 nM.

In turn, `CCc1cc(CN2CCC(C(=O)NC(C)(C)C)CC2)cc(NC(=O)c2cccc(C(F)(F)F)n2)c1` [Example 1.329] showed an EC50 of 159 nM.

In turn, `Cc1ccc(F)c(C(=O)Nc2cccc(CN3CCC(C(=O)NC4CCCCC4)CC3)c2)c1` [Example 1.116] showed a concentration giving a half-maximal response (EC50) of 6 nM.

Compound `O=C(Nc1cccc(CN2CCC(C(=O)NC3CCCC3)CC2)c1)c1cncc(F)c1` [Example 1.215] returned an EC50 of 2 nM.

Compound `O=C(Nc1cccc(CN2CCC(C(=O)NC3CCCCC3)CC2)c1)C1CCCCCC1` [Example 1.152] had an EC50 of 10 nM.

Turning to `CCc1cc(CN2CCC(C(=O)NC(C)(C)C)CC2)cc(NC(=O)c2ccc(F)cc2)c1` [Example 1.331], the EC50 came to 62 nM.

The compound `O=C(Nc1cccc(CN2CCC(C(=O)NC3CCCCC3)CC2)c1)c1cn[nH]c1` [Example 1.044] gave an EC50 of 1240 nM.

Compound `CC(C)(C)NC(=O)C1CCN(Cc2cccc(NC(=O)C3Cc4ccccc43)c2)CC1` (racemic) [Example 1.271] returned an EC50 of 1 nM.

The compound `CC(C)(C)NC(=O)C1CCN(Cc2cc(Br)cc(NC(=O)c3cccc(C(F)(F)F)n3)c2)CC1` [Example 1.279] showed an EC50 of 420 nM.

For `O=C(Nc1cccc(CN2CCC(C(=O)NC3CCCCC3)CC2)c1)c1ccc(F)cc1` [Example 1.156], the midpoint of the response, the EC50, lay at 2 nM.

`Cc1ccc(C(=O)Nc2cccc(CN3CCC(C(=O)NC4CCCCC4)CC3)c2)cc1` [Example 1.101] came in with an EC50 of 4 nM.

In the case of `O=C(Nc1cccc(CN2CCC(C(=O)NC3CCCCC3)CC2)c1)C1CCC1` [Example 1.150], the EC50 is 25 nM.

For the compound `CC(C)(C)NC(=O)C1CCN(Cc2cccc(NC(=O)Cc3c(C(F)(F)F)ccc(Cl)c3Cl)c2)CC1` [Example 1.251], a half-maximal response (EC50) required 3 nM.

In turn, `Cc1cccc(C(=O)Nc2cccc(CN3CCC(C(=O)NC4CC4)CC3)c2)n1` [Example 1.201] had an EC50 of 3 nM.

`O=C(Nc1cccc(CN2CCC(C(=O)NC3CCCCC3)CC2)c1)c1cccc(C(F)(F)F)c1` [Example 1.104]: the EC50 was 5 nM.

In turn, `CC(C)(C)NC(=O)C1CCN(Cc2cccc(NC(=O)C3CCOC3)c2)CC1` (racemic) [Example 1.256] yielded a half-maximal effective concentration (EC50) of 222 nM.

The compound `Cc1cccnc1C(=O)Nc1cccc(CN2CCC(C(=O)NC3CCCCC3)CC2)c1` [Example 1.061] showed an EC50 of 1 nM.

On to `CCC(C)(C)NC(=O)C1CCN(Cc2cccc(NC(=O)c3cc(C)c[n+]([O-])c3)c2)CC1` [Example 4.023, N-{3-[4-(1,1-Dimethyl-propylcarbamoyl)-piperidin-1-ylmethyl]-phenyl}-5-methyl-1-oxy-nicotinamide], for which it took 173 nM to reach a half-maximal effect (EC50).

On to `COc1ccc(NC(=O)c2cccc(C(F)(F)F)n2)cc1CN1CCC(C(=O)NC(C)(C)C)CC1` [Example 1.296], for which the response was half-maximal at 6 nM (EC50).

For the compound `Cc1nc(CC(=O)Nc2cccc(CN3CCC(C(=O)NC(C)(C)C)CC3)c2)c(C)s1` [Example 1.261], the response was half-maximal at 2 nM (EC50).

`Cc1ccc(C(=O)Nc2cccc(CN3CCC(C(=O)NC4CCCCC4)CC3)c2)s1` [Example 1.281] registered an EC50 of 3 nM.

As to `O=C(Nc1cccc(CN2CCC(C(=O)NC3CCCCC3)CC2)c1)c1ccc(C(F)(F)C(F)(F)F)cc1` [Example 1.153], it took 10 nM to reach a half-maximal effect (EC50).

`O=C(CCc1nc2ccccc2[nH]1)Nc1cccc(CN2CCC(C(=O)NC3CCCCC3)CC2)c1` [Example 1.045] gave an EC50 of 2490 nM.

`O=C(Nc1cccc(CN2CCC(C(=O)NC3CCCCC3)CC2)c1)c1ccc(N2CCCC2)cn1` [Example 1.084] had a half-maximal effective concentration (EC50) of 39 nM.

`CC(c1cccc(NC(=O)c2cnccn2)c1)N1CCC(C(=O)NC2CCCCC2)CC1` (racemic) [Example 1.170] registered a concentration giving a half-maximal response (EC50) of 18 nM.

`CCc1ccc(CN2CCC(C(=O)NC(C)(C)C)CC2)cc1NC(=O)c1cccc(C(F)(F)F)n1` [Example 1.326] gave a 50% effective concentration (EC50) of 2 nM.

The compound `CC(C)(C)NC(=O)C1CCN(Cc2cccc(NC(=O)Cc3ccccc3Cl)c2)CC1` [Example 1.258] displayed an EC50 of 1 nM.

Consider `O=C(Nc1ccc(Cl)c(CN2CCC(C(=O)NC3CCCC3)CC2)c1)c1ccc(F)cn1` [Example 1.224], for which it took 0.4 nM to reach a half-maximal effect (EC50).

Turning to `O=C(Nc1cccc(CN2CCC(C(=O)NC3CCCCC3)CC2)c1)c1ccc(Cl)cc1F` [Example 1.130], a half-maximal effect (EC50) was put at 7 nM.

`CC(C)C(C(=O)Nc1cccc(CN2CCC(C(=O)NC3CCCCC3)CC2)c1)c1ccccc1` (racemic) [Example 1.036]: the concentration giving a half-maximal response (EC50) is 35 nM.

In turn, `Cc1cncc(C(=O)Nc2cccc(CN3CC[C@H](C(=O)NC4CCCCC4)C[C@@H]3C)c2)c1` (racemic) [Example 2.104, rac-N-[3-((2S*,4S*)-4-Cyclohexylcarbamoyl-2-methyl-piperidin-1-ylmethyl)-phenyl]-5-methyl-nicotinamide] came in with a 50% effective concentration (EC50) of 4 nM.

`C[C@H]1C[C@@H](C(=O)NC(C)(C)C)CCN1Cc1cccc(NC(=O)c2cccc(C(F)(F)F)n2)c1` (racemic) [Example 2.102, rac-6-Trifluoromethyl-pyridine-2-carboxylic acid [3-((2S*,4S*)-4-tert-butylcarbamoyl-2-methyl-piperidin-1-ylmethyl)-phenyl]-amide]: it took 4 nM to reach a half-maximal effect (EC50).

`Cc1cncc(C(=O)Nc2cccc(CN3CCCC(C(=O)NC(C)(C)C)CC3)c2)c1` (racemic) [Example 1.290] had an EC50 of 49 nM.

Regarding `CC(C)(C)NC(=O)C1CCN(Cc2cccc(NC(=O)c3cnc4ccccc4n3)c2)CC1` [Example 1.232], the concentration for a half-maximal effect (EC50) was 3 nM.

The compound `O=C(Nc1cccc(CN2CCC(C(=O)NC3CCCCC3)CC2)c1)c1cccnc1N1CCOCC1` [Example 1.073] displayed a 50% effective concentration (EC50) of 371 nM.

`CC(C)(C)NC(=O)C1CCN(Cc2cccc(NC(=O)c3ccc(Cl)cn3)c2)CC1` [Example 1.339] yielded an EC50 of 0.6 nM.

As to `CC(C)(C)NC(=O)C1CCN(Cc2cccc(NC(=O)c3cccc(C(F)(F)F)[n+]3[O-])c2)CC1` [Example 1.345], the concentration giving a half-maximal response (EC50) came to 1 nM.

On to `CC(C)(C)NC(=O)C1CCN(Cc2cccc(NC(=O)/C=C/c3ccccc3)c2)CC1` [Example 1.337], for which a half-maximal response (EC50) required 8 nM.

In the case of `Cc1cc(CN2CCC(C(=O)NC(C)(C)C)CC2)cc(NC(=O)c2cccc(C(F)(F)F)n2)c1` [Example 1.316], the EC50 came to 36 nM.

“6-Trifluoromethyl-pyridine-2-carboxylic acid [3-(4-pentylcarbamoyl-piperidin-1-ylmethyl)-phenyl]-amide [Example 2.080]” had an EC50 of 15 nM.

As for `CC(C)(C)NC(=O)C1CCN(Cc2cccc(NC(=O)c3ncc(Cl)cc3F)c2)CC1` [Example 1.340], it took 0.7 nM to reach a half-maximal effect (EC50).

As for `Cc1c(F)cccc1C(=O)Nc1cccc(CN2CCC(C(=O)NC3CCCCC3)CC2)c1` [Example 1.114], the EC50 was 13 nM.

For the compound `CC(C)CN(C)C(=O)C1CCN(Cc2cccc(NC(=O)c3cccc(C(F)(F)F)n3)c2)CC1` [Example 1.274], it took 9 nM to reach a half-maximal effect (EC50).

`Cc1ccc(C(=O)Nc2cccc(CN3CCC(C(=O)NC4CCCCC4)CC3)c2)cn1` [Example 1.064] returned an EC50 of 19 nM.
